Several values for one entry are separate records, joined by “and”; a condition that tells them apart may be missing. Equal entries are not always repeated. Inconclusive results and toxic doses are left out. Rule for the calls: active = survival T/C of 150% or more; inactive = T/C below 125% in these data. Square brackets hold non-standard residues; d marks the D form. Peptide text beside a SMILES is read from it. ξ: configuration not given here. ξLac(3-iPr) = CC(C)CC(O)C(=O)O; NMeV = CN[CH](C(=O)O)C(C)C; NMeA = CN[CH](C)C(=O)O; βAla = NCCC(=O)O
Tested on: P388 leukemia ip, CD2F1 mice, survival T/C
Experiment: NCI In Vivo Anticancer Drug Screen. Data for tumor model P388 Leukemia (intraperitoneal) in CD2F1 (CDF1) mice
Conditions: endpoint: median survival time, higher = longer survival
Method in brief: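 Mice carrying the transplanted tumor received test compound or vehicle. Survival was recorded in each group, and the value is the treated-group measurement divided by that of the vehicle-treated control group.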

[1] = dose: 50.0 mg/kg/injection, schedule: Q01DX005 (ip), vehicle: saline with Tween-80
[2] = dose: 100.0 mg/kg/injection, schedule: Q01DX005 (ip), vehicle: saline with Tween-80
[3] = dose: 200.0 mg/kg/injection, schedule: Q01DX005 (ip), vehicle: saline with Tween-80
[4] = dose: 60.0 mg/kg/injection, schedule: Q01DX005 (ip), vehicle: saline with Tween-80
[5] = dose: 120.0 mg/kg/injection, schedule: Q01DX005 (ip), vehicle: saline with Tween-80
[6] = dose: 240.0 mg/kg/injection, schedule: Q01DX005 (ip), vehicle: saline with Tween-80
[7] = dose: 50.0 mg/kg/injection, schedule: Q01DX005 (ip), vehicle: Klucel (hydroxypropylcellulose) (HPC)
[8] = dose: 100.0 mg/kg/injection, schedule: Q01DX005 (ip), vehicle: Klucel (hydroxypropylcellulose) (HPC)
[9] = dose: 200.0 mg/kg/injection, schedule: Q01DX005 (ip), vehicle: Klucel (hydroxypropylcellulose) (HPC)
[10] = dose: 60.0 mg/kg/injection, schedule: Q01DX005 (ip), vehicle: Klucel (hydroxypropylcellulose) (HPC)
[11] = dose: 120.0 mg/kg/injection, schedule: Q01DX005 (ip), vehicle: Klucel (hydroxypropylcellulose) (HPC)

Measured: T/C

CN1CCN(CC2C3CCC(C3)C2O)CC1 (configuration not stated)
inactive: dose: 25.0 mg/kg/injection, schedule: Q01DX005 (ip), vehicle: saline 100 % of control | dose: 50.0 mg/kg/injection, schedule: Q01DX005 (ip), vehicle: saline 97 % of control | dose: 100.0 mg/kg/injection, schedule: Q01DX005 (ip), vehicle: saline 96 % of control | dose: 200.0 mg/kg/injection, schedule: Q01DX005 (ip), vehicle: saline 99 % of control

Oc1cc(O)cc(/C=C/c2ccccc2)c1
inactive: dose: 50.0 mg/kg/injection, schedule: Q01DX005 (ip), vehicle: water 107 % of control | dose: 100.0 mg/kg/injection, schedule: Q01DX005 (ip), vehicle: water 101 % of control

O=COCC(C(=O)O)c1ccccc1 (configuration not stated)
inactive: [1] 102 % of control | [2] 94 % of control | [3] 95 % of control

CCOc1ccc(Nc2ncnc3sc4c(c23)CCCC4)cc1
inactive: [1] 100 % of control | [2] 102 % of control | [3] 109 % of control

CS(=O)(=O)O/C=C1\CCc2ccccc2C1=O
inactive: [1] 98 % of control | [2] 98 % of control | [3] 105 % of control

O=C1[C@@H]2[C@H](C(=O)N1c1ccccc1)[C@H]1CC[C@H]2N1C(=O)c1ccccc1
inactive: [4] 96 % of control | [5] 100 % of control | [6] 88 % of control

COc1cc(C2c3cc4c(cc3OC(O)C2C)OCO4)cc(OC)c1OC (configuration not stated)
inactive: dose: 15.0 mg/kg/injection, schedule: Q01DX005 (ip), vehicle: saline with Tween-80 99 % of control | dose: 30.0 mg/kg/injection, schedule: Q01DX005 (ip), vehicle: saline with Tween-80 101 % of control | [4] 99 % of control and 112 % of control | [5] 117 % of control

O=C(O)CS(=O)(=O)Cc1ccc(Cl)cc1Cl
inactive: dose: 60.0 mg/kg/injection, schedule: Q01DX005 (ip), vehicle: suspension in saline 103 % of control | dose: 120.0 mg/kg/injection, schedule: Q01DX005 (ip), vehicle: suspension in saline 112 % of control | dose: 240.0 mg/kg/injection, schedule: Q01DX005 (ip), vehicle: suspension in saline 96 % of control

Nc1nnc(/C=C/c2ccc(Cl)c(Cl)c2)o1
inactive: [4] 95 % of control | [5] 103 % of control | [6] 102 % of control

O=C(O)c1cc[c]([Hg][S]c2ncnc3nc[nH]c23)cc1
inactive: dose: 1.56 mg/kg/injection, schedule: Q01DX009 (ip), vehicle: saline with Tween-80 106 % of control | dose: 3.13 mg/kg/injection, schedule: Q01DX009 (ip), vehicle: saline with Tween-80 110 % of control and 123 % of control | dose: 6.25 mg/kg/injection, schedule: Q01DX009 (ip), vehicle: saline with Tween-80 100 % of control | dose: 12.5 mg/kg/injection, schedule: Q01DX009 (ip), vehicle: saline with Tween-80 100 % of control | dose: 25.0 mg/kg/injection, schedule: Q01DX009 (ip), vehicle: Klucel (hydroxypropylcellulose) (HPC) 121 % of control

Nc1ccc(SSc2ccc(Nc3ccnc4cc(Cl)ccc34)cc2)cc1
inactive: [1] 92 % of control | [2] 93 % of control | [3] 91 % of control

N#Cc1[nH]nc2nc[nH]c(=O)c12
inactive: dose: 100.0 mg/kg/injection, schedule: Q04DX002 (ip), vehicle: water 114 % of control | dose: 200.0 mg/kg/injection, schedule: Q04DX002 (ip), vehicle: water 113 % of control

COc1ccc2nc(CC(C)C)c3c(c2c1)-c1ccccc1C3=O
inactive: [7] 91 % of control | [8] 87 % of control | [9] 89 % of control

COc1ccc(C2[C@H](C(=O)O)c3ccccc3C(=O)N2Cc2ccccc2)cc1 (some centres not stated)
inactive: dose: 100.0 mg/kg/injection, schedule: Q04DX002 (ip), vehicle: saline with Tween-80 101 % of control | dose: 200.0 mg/kg/injection, schedule: Q04DX002 (ip), vehicle: saline with Tween-80 104 % of control | dose: 400.0 mg/kg/injection, schedule: Q04DX002 (ip), vehicle: saline with Tween-80 103 % of control

Cc1ccccc1C(=O)Nc1ccccc1-c1ccccc1N
inactive: dose: 25.0 mg/kg/injection, schedule: Q04DX003 (ip), vehicle: saline 95 % of control | dose: 50.0 mg/kg/injection, schedule: Q04DX003 (ip), vehicle: saline 99 % of control | dose: 100.0 mg/kg/injection, schedule: Q04DX003 (ip), vehicle: saline 90 % of control and 91 % of control

Clc1cccc2c(SCCCCCCSc3c4ccccc4nc4c(Cl)cccc34)c3ccccc3nc12
inactive: [10] 92 % of control | [11] 88 % of control

O=[N+]([O-])c1ccccc1S(=O)(=O)N(CCCCCN(S(=O)(=O)c1ccccc1[N+](=O)[O-])S(=O)(=O)c1ccccc1[N+](=O)[O-])S(=O)(=O)c1ccccc1[N+](=O)[O-]
inactive: [10] 89 % of control | [11] 87 % of control | dose: 240.0 mg/kg/injection, schedule: Q01DX005 (ip), vehicle: Klucel (hydroxypropylcellulose) (HPC) 87 % of control

COC(=O)CC1C=CC(OC)[C@@]2(C)C(=O)C=C(C)C(=O)[C@@H]12 (some centres not stated)
inactive: [4] 110 % of control | [5] 106 % of control | [6] 106 % of control

Cn1c(=O)c2nc(-c3ccccc3)cnc2n(C)c1=O
inactive: dose: 100.0 mg/kg/injection, schedule: Q01DX001 (ip), vehicle: saline 99 % of control | dose: 200.0 mg/kg/injection, schedule: Q01DX001 (ip), vehicle: saline 96 % of control | dose: 400.0 mg/kg/injection, schedule: Q01DX001 (ip), vehicle: saline 111 % of control

N#CCCOCN(COCCC#N)c1nc(N(COCCC#N)COCCC#N)nc(N(COCCC#N)COCCC#N)n1
inactive: dose: 7.5 mg/kg/injection, schedule: Q01DX005 (ip), vehicle: DMSO 97 % of control | dose: 15.0 mg/kg/injection, schedule: Q01DX005 (ip), vehicle: DMSO 94 % of control | dose: 30.0 mg/kg/injection, schedule: Q01DX005 (ip), vehicle: DMSO 94 % of control

CCC(C)C1NC(=O)C2CCCN2C(=O)C(CC(C)C)OC(=O)CCNC(=O)C(C)N(C)C(=O)C(C(C)C)N(C)C1=O (configuration not stated) (cyclo([ξLac(3-iPr)]PI[NMeV][NMeA][βAla]); configuration not given here)
inactive: dose: 0.63 mg/kg/injection, schedule: Q01DX009 (ip), vehicle: saline 115 % of control | dose: 1.25 mg/kg/injection, schedule: Q01DX009 (ip), vehicle: saline 113 % of control | dose: 2.5 mg/kg/injection, schedule: Q01DX009 (ip), vehicle: saline 117 % of control | dose: 5.0 mg/kg/injection, schedule: Q01DX005 (ip), vehicle: saline with Tween-80 123 % of control | dose: 5.0 mg/kg/injection, schedule: Q01DX009 (ip), vehicle: saline 120 % of control | dose: 10.0 mg/kg/injection, schedule: Q01DX005 (ip), vehicle: saline with Tween-80 119 % of control

CC/C(=N/NS(=O)(=O)c1ccc(C)cc1)C(=O)O
inactive: dose: 25.0 mg/kg/injection, schedule: Q01DX005 (ip), vehicle: Klucel (hydroxypropylcellulose) (HPC) 90 % of control | [7] 92 % of control | [8] 92 % of control | [9] 91 % of control | dose: 400.0 mg/kg/injection, schedule: Q01DX005 (ip), vehicle: Klucel (hydroxypropylcellulose) (HPC) 88 % of control

O=C1NC(=O)c2ccc3c4ccc5c6c(ccc(c7ccc1c2c73)c46)c(=O)n1c2ccccc2nc51
inactive: dose: 90.0 mg/kg/injection, schedule: Q01DX001 (ip), vehicle: Klucel (hydroxypropylcellulose) (HPC) 94 % of control | dose: 180.0 mg/kg/injection, schedule: Q01DX001 (ip), vehicle: Klucel (hydroxypropylcellulose) (HPC) 94 % of control | dose: 360.0 mg/kg/injection, schedule: Q01DX001 (ip), vehicle: Klucel (hydroxypropylcellulose) (HPC) 92 % of control

Cc1ccc2nc3cc(N)ccc3c(-c3ccc(N)cc3)c2c1
inactive: [7] 97 % of control | [8] 102 % of control | [9] 97 % of control

CCC(=O)NC(Cc1ccccc1F)C(=O)O (configuration not stated)
inactive: dose: 12.5 mg/kg/injection, schedule: Q01DX009 (ip), vehicle: saline 101 % of control | dose: 25.0 mg/kg/injection, schedule: Q01DX009 (ip), vehicle: saline 88 % of control | dose: 50.0 mg/kg/injection, schedule: Q01DX009 (ip), vehicle: saline 91 % of control and 93 % of control | dose: 200.0 mg/kg/injection, schedule: Q01DX009 (ip), vehicle: saline 95 % of control

CC1(C)C(C)(C)C1(Br)Br
inactive: dose: 12.5 mg/kg/injection, schedule: Q01DX009 (ip), vehicle: saline + alcohol 102 % of control | dose: 25.0 mg/kg/injection, schedule: Q01DX009 (ip), vehicle: saline + alcohol 111 % of control | dose: 50.0 mg/kg/injection, schedule: Q01DX009 (ip), vehicle: saline + alcohol 103 % of control | dose: 100.0 mg/kg/injection, schedule: Q01DX009 (ip), vehicle: saline + alcohol 100 % of control and 95 % of control | dose: 200.0 mg/kg/injection, schedule: Q01DX009 (ip), vehicle: saline + alcohol 89 % of control
